Assay results from patent US9309263B2, “Fused multi-cyclic sulfone compounds as inhibitors of beta-secretase and methods of use thereof” (AMGEN INC., priority 2013, dated 2016).
Where two headings read alike, the source gives them in different places.

Experiments:
[1] = system: Aβ 40 in conditioned medium of cells stably expressing Amyloid Precursor Protein (APP); assay: In vitro BACE cell-based assay (Aβ 40 sandwich ELISA)
In short: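 APP-expressing cells, 24 h pre-culture in DMEM/10% FBS, treated 24 h with 10-point compound dilutions from 100 or 10 μM top, 0.1% DMSO final. Secreted Aβ40 quantified by sandwich ELISA (pAb40 capture, biotinylated 6E10 detection, europium TRF); IC50 from percent inhibition versus concentration.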

[2] = target: Beta Secretase enzyme (BACE) (Homo sapiens, UniProt P56817); assay: In vitro enzymatic BACE FRET assay; format: biochemical; details: read-out: BACE1 FRET assay IC50
Chain of Beta Secretase enzyme (BACE) (P56817 46-501): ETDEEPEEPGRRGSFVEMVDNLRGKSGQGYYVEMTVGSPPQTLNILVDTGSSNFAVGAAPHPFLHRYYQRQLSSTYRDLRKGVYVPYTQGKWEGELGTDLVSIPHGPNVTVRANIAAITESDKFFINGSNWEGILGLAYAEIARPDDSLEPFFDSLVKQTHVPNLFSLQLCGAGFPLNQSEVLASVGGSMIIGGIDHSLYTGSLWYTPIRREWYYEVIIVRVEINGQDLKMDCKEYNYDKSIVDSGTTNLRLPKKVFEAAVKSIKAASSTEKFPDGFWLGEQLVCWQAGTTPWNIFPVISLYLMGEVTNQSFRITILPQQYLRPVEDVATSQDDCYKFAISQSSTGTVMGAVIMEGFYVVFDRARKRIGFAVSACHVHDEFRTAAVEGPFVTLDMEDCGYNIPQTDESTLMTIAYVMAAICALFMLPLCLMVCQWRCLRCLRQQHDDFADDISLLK
In short: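 Enzyme (0.2 nM) pre-incubated 1 h with serially diluted inhibitors in 0.05 M acetate pH 4.2, 10% DMSO, 100 uM genapol. Reaction started with 50 nM fluorophore/quencher peptide FRET substrate, run 1 h, stopped with Tris to neutral pH. Fluorescence read at excitation 488 nm, […].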

Cathepsin D (Cat D) = Cathepsin D (Cat D) (Homo sapiens, UniProt P07339); assay: In vitro enzymatic Cathepsin D (Cat D) FRET assay; format: biochemical
Chain of Cathepsin D (Cat D) (P07339 65-412, species assumed): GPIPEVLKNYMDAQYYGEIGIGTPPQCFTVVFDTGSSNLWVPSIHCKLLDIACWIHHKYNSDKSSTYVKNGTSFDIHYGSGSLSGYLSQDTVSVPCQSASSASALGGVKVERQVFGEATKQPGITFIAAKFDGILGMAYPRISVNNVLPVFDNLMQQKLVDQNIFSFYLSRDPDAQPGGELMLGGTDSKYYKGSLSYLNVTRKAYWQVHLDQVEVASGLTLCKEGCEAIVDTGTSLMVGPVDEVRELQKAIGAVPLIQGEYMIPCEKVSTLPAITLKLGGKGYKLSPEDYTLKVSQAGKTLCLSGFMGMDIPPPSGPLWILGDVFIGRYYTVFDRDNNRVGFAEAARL
In short: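 Recombinant CHO-expressed enzyme (9 nM) pre-incubated 1 h with serially diluted inhibitor in 0.05 M citrate pH 3.5, 10% DMSO final, 5 mM CHAPS. Reaction started with 20 nM FRET peptide substrate, run 1 h, stopped with Tris to neutral pH; fluorescence read at ex 500/em 580 nm.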

[3] = Homo sapiens, HEK293, HEK cell, average IC50
[4] = text summary referring to data in Table 2
[5] = Homo sapiens, HEK293, average IC50, HEK cell assay, Aβ 40 readout
[6] = average IC50, in vitro enzymatic BACE FRET assay
[7] = Cathepsin D FRET assay, read-out: CatD IC50
[8] = Homo sapiens, HEK293, HEK cells, average IC50

Row | SMILES | IC50 [1, 3] [µM] | IC50 ([2]; average IC50) [µM] | IC50 (Cathepsin D (Cat D); read-out: CatD IC50) [µM] | IC50 (Cathepsin D (Cat D); [4]) [µM] | IC50 [1, 5] [µM] | IC50 [2, 6] [µM] | IC50 (Cathepsin D (Cat D); [7]) [µM] | IC50 [1, 8] [µM] | IC50 ([1]; HEK cell, average IC50) [µM]
1 | CC#C[C@@H](C)Oc1ccc(C(=O)Nc2ccc3c(c2)[C@@]2(C)N=C(N)C(C)(C)S(=O)(=O)[C@@H]2CCO3)nc1 (single isomer, unassigned) [Example 68] | 0.001 | 0.002 | 1990 | > 1200 | – | – | – | – | –
2 | Cc1cc(Cl)cnc1C(=O)Nc1cnc2c(c1)[C@@]1(C)N=C(N)C3(CCC3)S(=O)(=O)[C@@H]1CCO2 [Example 59, N-((4a′R,11b′R)-2′-amino-11b′-methyl-4′,4′-dioxido-4a′,5′,6′,11b′-tetrahydrospiro[cyclobutane-1,3′-pyrido[3′,2′:6,7]oxepino[4,5-b][1,4]thiazin]-10′-yl)-5-chloro-3-methyl-2-pyridinecarboxamide] | 0.057 | 0.05 | > 400 | – | – | – | – | – | –
3 | Cc1cc(Cl)cnc1C(=O)Nc1ccc2c(c1)[C@@]1(C)N=C(N)C(C)(C)S(=O)(=O)[C@@H]1CCS2 [Example 114, N-((4aR,11bR)-2-amino-3,3,11b-trimethyl-4,4-dioxido-4a,5,6,11b-tetrahydro-3H-[1]benzothiepino[4,5-b][1,4]thiazin-10-yl)-5-chloro-3-methyl-2-pyridinecarboxamide] | – | – | – | – | 0.012 | 0.001 | 292 | – | –
4 | COc1cnc2c(Nc3ccc4c(c3)[C@@]3(C)N=C(N)C(C)(C)S(=O)(=O)[C@@H]3C[C@H](C)O4)nccc2n1 [Example 53, (4aR,6S,11bR)-N^~10^~-(2-methoxypyrido[3,4-b]pyrazin-5-yl)-3,3,6,11b-tetramethyl-4a,5,6,11b-tetrahydro-3H-[1]benzoxepino[4,5-b][1,4]thiazine-2,10-diamine 4,4-dioxide] | 0.011 | 0.032 | 977 | > 800 | – | – | – | – | –
5 | COc1cnc(C(=O)Nc2cnc3c(c2)[C@@]2(C)N=C(N)C4(CCC4)S(=O)(=O)[C@@H]2CCO3)c(C)c1 [Example 64, N-((4a′R,11b′R)-2′-amino-1113′-methyl-4′,4′-dioxido-4a′,5′,6′,11b′-tetrahydrospiro[cyclobutane-1,3′-pyrido[3′,2′:6,7]oxepino[4,5-b][1,4]thiazin]-10′-yl)-5-methoxy-3-methyl-2-pyridinecarboxamide] | – | 0.059 | > 400 | – | – | – | – | – | 0.184
6 | CC1(C)C(N)=N[C@]2(CF)c3cc(NC(=O)c4ccc(OC(F)F)cn4)ccc3OCC[C@H]2S1(=O)=O [Example 123, N-((4aR,11bS)-2-amino-11b-(fluoromethyl)-3,3-dimethyl-4,4-dioxido-4a,5,6,11b-tetrahydro-3H-[1]benzoxepino[4,5-b][1,4]thiazin-10-yl)-5-(difluoromethoxy)-2-pyridinecarboxamide] | – | – | – | – | 0.033 | 0.019 | 4100 | – | –
7 | CC1(C)C(N)=N[C@]2(C)c3cc(Nc4nccc5cc(Cl)cnc45)ccc3CCC[C@H]2S1(=O)=O [Example 46, (4aR,11bR)-N^~10^~-(3-chloro-1,7-naphthyridin-8-yl)-3,3,11b-trimethyl-3,4a,5,6,7,11b-hexahydrobenzo[3,4]cyclohepta[1,2-b][1,4]thiazine-2,10-diamine 4,4-dioxide] | 0.102 | 0.01 | 85.9 | – | – | – | – | – | –
8 | CC1(C)C(N)=N[C@]2(C)c3cc(Nc4ncc(F)c5cc(C#N)cnc45)ccc3OCC[C@H]2S1(=O)=O [Example 171, 8-(((4aR,11bR)-2-amino-3,3,11b-trimethyl-4,4-dioxido-4a,5,6,11b-tetrahydro-3H-[1]benzoxepino[4,5-b][1,4]thiazin-10-yl)amino)-5-fluoro-1,7-naphthyridine-3-carbonitrile] | – | 0.003 | > 14.8 | – | – | – | – | 0.01 | –
9 | CC1(C)C(N)=N[C@]2(C)c3cc(NC(=O)c4ncc(Cl)cc4Cl)ccc3CCC[C@H]2S1(=O)=O [Example 44, N-((4aR,11bR)-2-amino-3,3,11b-trimethyl-4,4-dioxido-3,4a,5,6,7,11b-hexahydrobenzo[3,4]cyclohepta[1,2-b][1,4]thiazin-10-yl)-3,5-dichloro-2-pyridinecarboxamide] | 0.016 | 0.005 | 541 | – | – | – | – | – | –
10 | CCCOc1cnc(C(=O)Nc2ccc3c(c2)[C@@]2(C)N=C(N)C(C)(C)S(=O)(=O)[C@@H]2C[C@H](C)O3)cn1 [Example 79, N-((4aR,6S,11bR)-2-amino-3,3,6,11b-tetramethyl-4,4-dioxido-4a,5,6,11b-tetrahydro-3H-[1]benzoxepino[4,5-b][1,4]thiazin-10-yl)-5-propoxy-2-pyrazinecarboxamide] | 0.016 | 0.005 | 841 | – | – | – | – | – | –

More lines, now with the values ahead:

Row | IC50 [1, 3] [µM] | IC50 ([2]; average IC50) [µM] | IC50 (Cathepsin D (Cat D); read-out: CatD IC50) [µM] | IC50 (Cathepsin D (Cat D); [4]) [µM] | IC50 [1, 5] [µM] | IC50 [2, 6] [µM] | IC50 (Cathepsin D (Cat D); [7]) [µM] | IC50 [1, 8] [µM] | IC50 ([1]; HEK cell, average IC50) [µM] | SMILES
11 | 0.138 | 0.03 | 979 | > 800 | – | – | – | – | – | CC#C[C@@H](C)Oc1cnc(C(=O)Nc2ccc3c(c2)[C@@]2(C)N=C(N)C(C)(C)S(=O)(=O)[C@@H]2CCO3)cn1 [Example 16, N-((4aR,11bR)-2-amino-3,3,11b-trimethyl-4,4-dioxido-4a,5,6,11b-tetrahydro-3H-[1]benzoxepino[4,5-b][1,4]thiazin-10-yl)-5-(((1R)-1-methyl-2-butyn-1-yl)oxy)-2-pyrazinecarboxamide]
12 | – | – | – | – | 0.008 | 0.006 | > 1.65 | – | – | Cc1cc(Cl)cnc1C(=O)Nc1ccc2c(c1)[C@@]1(C)N=C(N)C(C)(C)S(=O)(=O)[C@@H]1CCS2(=O)=O [Example 124, N-((4aR,11bR)-2-amino-3,3,11b-trimethyl-4,4,7,7-tetraoxido-4a,5,6,11b-tetrahydro-3H-benzo[6,7]thiepino[4,5-b][1,4]thiazin-10-yl)-5-chloro-3-methylpicolinamide]
13 | – | 0.002 | 1070 | – | – | – | – | 0.002 | – | CC1(C)C(N)=N[C@]2(C)c3cc(NC(=O)c4ncc(C#N)cc4Cl)ccc3OCC[C@H]2S1(=O)=O [Example 174, N-((4aR,11bR)-2-amino-3,3,11b-trimethyl-4,4-dioxido-4a,5,6,11b-tetrahydro-3H-[1]benzoxepino[4,5-b][1,4]thiazin-10-yl)-3-chloro-5-cyano-2-pyridinecarboxamide]
14 | – | – | – | – | 0.002 | 0.006 | 1200 | – | – | Cc1cc(C(F)(F)F)cnc1C(=O)Nc1ccc2c(c1)[C@@]1(C)N=C(N)C(C)(C)S(=O)(=O)[C@@H]1CC(C)(C)O2 [Example 113, N-((4aR,11bR)-2-amino-3,3,6,6,11b-pentamethyl-4,4-dioxido-4a,5,6,11b-tetrahydro-3H-[1]benzoxepino[4,5-b][1,4]thiazin-10-yl)-3-methyl-5-(trifluoromethyl)-2-pyridinecarboxamide]
15 | – | – | – | – | 0.002 | 0.002 | 207 | – | – | Cc1cc(OC(F)F)cnc1C(=O)Nc1ccc2c(c1)[C@@]1(C)N=C(N)C(C)(C)S(=O)(=O)[C@@H]1CCS2 [Example 118]
16 | – | 0.021 | 516 | – | – | – | – | 0.013 | – | COc1ccc(C(=O)Nc2ccc3c(c2)[C@@]2(C)N=C(N)C(C)(C)S(=O)(=O)[C@@H]2CCO3)nc1 [Example 185, N-((4aR,11bR)-2-amino-3,3,11b-trimethyl-4,4-dioxido-4a,5,6,11b-tetrahydro-3H-[1]benzoxepino[4,5-b][1,4]thiazin-10-yl)-5-methoxy-2-pyridinecarboxamide]
17 | 0.014 | 0.006 | 1290 | > 1200 | – | – | – | – | – | Cc1cc(Cl)cnc1C(=O)Nc1cnc2c(c1)[C@@]1(C)N=C(N)C(C)(C)S(=O)(=O)[C@@H]1CCO2 [Example 18, N-((4aR,11bR)-2-amino-3,3,11b-trimethyl-4,4-dioxido-4a,5,6,11b-tetrahydro-3H-pyrido[3′,2′:6,7]oxepino[4,5-b][1,4]thiazin-10-yl)-5-chloro-3-methyl-2-pyridinecarboxamide]
18 | – | – | – | – | 0.016 | 0.025 | 247 | – | – | C[C@H]1C[C@@H]2[C@](C)(N=C(N)C(C)(C)S2(=O)=O)c2cc(Nc3nccc4nc(O)cnc34)ccc2O1 [Example 136, 5-(((4aR,6S,11bR)-2-amino-3,3,6,11b-tetramethyl-4,4-dioxido-4a,5,6,11b-tetrahydro-3H-[1]benzoxepino[4,5-b][1,4]thiazin-10-yl)amino)pyrido[3,4-b]pyrazin-2(1H)-one]
19 | 0.007 | 0.003 | 871 | – | – | – | – | – | – | C[C@H]1C[C@@H]2[C@](C)(N=C(N)C(C)(C)S2(=O)=O)c2cc(NC(=O)c3cnc(OCC(F)(F)F)cn3)ccc2O1 [Example 74, N-((4aR,6S,11bR)-2-amino-3,3,6,11b-tetramethyl-4,4-dioxido-4a,5,6,11b-tetrahydro-3H-[1]benzoxepino[4,5-b][1,4]thiazin-10-yl)-5-(2,2,2-trifluoroethoxy)-2-pyrazinecarboxamide]
20 | – | – | – | – | 0.002 | 0.008 | > 400 | – | – | Cc1cc(C#N)cnc1C(=O)Nc1ccc2c(c1)[C@@]1(C)N=C(N)C(C)(C)S(=O)(=O)[C@@H]1CC(C)(C)O2 [Example 99, N-((4aR,11bR)-2-amino-3,3,6,6,11b-pentamethyl-4,4-dioxido-4a,5,6,11b-tetrahydro-3H-[1]benzoxepino[4,5-b][1,4]thiazin-10-yl)-5-cyano-3-methyl-2-pyridinecarboxamide]
